Assay results: ChEMBL document CHEMBL3507680, “University of Dundee, Gates Library screen for HepG2 cell viability”

Experiment: Human HepG2 cell viability assay in 384 well format
Assay type: toxicity, cell-based
Design: dose 125 nL, time 70.5 hour; concentration not given beside the values
Conditions: HepG2 cells, read-out: Inhibition

SMILES | cytotoxicity at 70.5 h [%]
CN(C)C(=O)CN1C[C@@H]2CC[C@H](C1)N(Cc1cc(F)ccc1F)C2 | 7.45
CSc1nccc(N2CCN(C)C3(CCNC(=O)CC3)C2)n1 (stereo unspecified) | -5.4
CCCn1nc(C)c(CNC(=O)C2COc3c(cccc3OC)C2)c1C (stereo unspecified) | -10.5
COc1cccc([C@@H]2CCN(Cc3ccc4ccccc4n3)C[C@H]2O)c1 | -8.06
Cc1nccn1CCC1CCCCN1C(=O)c1ccc2[nH]nnc2c1 (stereo unspecified) | -1.82
COCCNS(=O)(=O)c1cccc2c1CN(C(=O)c1ccccc1)CC2 | 14.6
CC(C)CN1CCN(Cc2nc3ccccc3[nH]2)[C@H]2CS(=O)(=O)C[C@H]21 | -11.1
CC(c1ccccc1)n1c(SCC(=O)O)nnc1-c1ccccc1Cl (stereo unspecified) | -4
CC(C)C(=O)NCC(=O)N(C)C1CCCN(C2Cc3ccccc3C2)C1 (stereo unspecified) | -10.4
CCS(=O)(=O)N1CCC(c2nnc(CN3CCCC3)n2C2CC2)CC1 | -11.4
Cc1ccccc1C(=O)N1CCOC2(CNCCOC2)C1 (stereo unspecified) | -4.46
O=C(CCCc1ccc(F)cc1)N1C[C@@H](CN2CCOCC2)[C@@H](CO)C1 | -2.56
Cc1cc(-c2nn(C)c(Cl)c2CN2CCOCC(O)C2)no1 (stereo unspecified) | -11.6
CN(CC1(O)CCCN(CCC2CCCCC2)C1=O)C1CCOCC1 (stereo unspecified) | -5.64
COc1cccn(CC(=O)N(C)Cc2ccoc2)c1=O | 1.59
CC(CN1CCC2(CC1)c1nc[nH]c1CCN2S(C)(=O)=O)C(F)(F)F (stereo unspecified) | -1.86
CCOCCOc1ccccc1C(=O)N1CCCC(c2ncc[nH]2)C1 (stereo unspecified) | -5
O=C(c1cccnc1)N1C[C@@H]2CC[C@H](C1)N(Cc1cccc(Cl)c1F)C2 | -1.34
COCCN(C)CCN1CC2(CCN(C3CCCOC3)CC2)OC1=O (stereo unspecified) | 3.4
Cc1ccc2c(c1)c(CNC(=O)C1CCN(C(C)C)CC1)nn2C | -14.4
CN1CC(c2ccccc2)CC12CCN(C(=O)c1cncc(Cl)c1)CC2 (stereo unspecified) | -8.59

SMILES | cytotoxicity at 70.5 h [%]
CCn1cc(CN2CCC(c3nnc(CN(C)C)n3CC)CC2)cn1 | 10.9
COCCN1CCCC(c2nc3c([nH]2)CC(C)(C)CNC3=O)C1 (stereo unspecified) | -3
Cc1nonc1CN(C)CC1(O)CCCN(CCC2CCCCC2)C1=O (stereo unspecified) | 2.77
CN(C)C(=O)N1CCN(C(=O)CCc2ccccc2)[C@H]2CS(=O)(=O)C[C@H]21 | -5.59
CSCCNC(=O)c1ccc(OC2CCN(CC(C)(C)C)CC2)c(Cl)c1 | -7.8
Cc1cc(C)nc(CCNC(=O)C(c2ccc(F)cc2)N(C)C)n1 (stereo unspecified) | 30.5
CN(C)C(=O)CCCNC(=O)C(c1cccc(F)c1)N(C)C (stereo unspecified) | 3.05
Cc1cc(-c2nn(C)c(Cl)c2CN2Cc3ccccc3C(O)C2)no1 (stereo unspecified) | -11.3
COc1cccc2c1OCC(C(=O)N(C)CCCc1cnn(C)c1)C2 (stereo unspecified) | -1.77
O=C(c1cccnc1)N1C[C@@H]2CC[C@H](C1)N(Cc1cc(F)ccc1F)C2 | -5.88
CC(C)c1cc(N2CCN(c3ccc(O)cc3)CC2)n2nccc2n1 | -11.5
CCNC(=O)CCN1CCC(c2cc(N3CCOCC3)nc(C)n2)CC1 | -7.37
COc1cccc2c1OCC(CNC(=O)CNC(N)=O)C2 (stereo unspecified) | -4.9
COc1nc(C)c(C(=O)N(C)Cc2nc(-c3ccccn3)no2)s1 | 5.05
O=C(c1ccccn1)N1CCCC(c2nccn2CC2CCC2)C1 (stereo unspecified) | 18.9
CCCC(C)CN1CCC(n2cc(CCCO)nn2)CC1 (stereo unspecified) | -4.4
CCOCCn1c(=O)[nH]c2cc(C(=O)N(C)CCc3cn[nH]c3)ccc21 | 18.1
CC(C)n1ccnc1C1CCN(C(=O)C2COc3ccccc3O2)CC1 (stereo unspecified) | -9.98
Cc1nnsc1C(=O)N1CCC2(CC1)c1nc[nH]c1CCN2CC(C)C | -2.79
c1ccc(OCC2CC2)c(CNC2CCc3ncnn3C2)c1 (stereo unspecified) | -7.19
c1cncc(COc2ccccc2CNC2CCc3ncnn3C2)c1 (stereo unspecified) | -5.98

SMILES | cytotoxicity at 70.5 h [%]
COc1cc(C)nc(N2CCN(C(=O)CN(C)C(C)C)CC2)n1 | 29
NC(=O)c1cccc(CN2CCc3c(ncn3C3CC3)C2)c1 | 23.7
CN(Cc1noc(C2CC2)n1)C1CCN(Cc2cccc(F)c2F)C1 (stereo unspecified) | 15.9
CN(Cc1cccnc1)C1CCCN(Cc2noc(C3CC3)n2)C1 (stereo unspecified) | 24.6
CCCc1cc(C(=O)NCCN2CCCS2(=O)=O)[nH]n1 | -7.48
Cc1ccc(-c2cc(C(=O)NCCN3CCCS3(=O)=O)[nH]n2)o1 | -14.9
OCCN1CCC(CNCc2ccccc2OC(F)(F)F)CC1 | -7.57
COc1cc(C)nc(N2CCN(C(=O)CSC)CC2)n1 | -11.8
O=C1C(NCc2nnc3n2CCCC3)CCN1c1ccccc1Cl (stereo unspecified) | 9.28
O=C(NCc1nn(-c2ccccc2)c2c1CCC2)N1CCCC(O)C1 (stereo unspecified) | -12.1
O=C(NCc1nn(-c2ccccc2)c2c1CCC2)NC1CCC(O)CC1 (stereo unspecified) | -8.01
NC(=O)NCCC(=O)NCc1nn(-c2ccccc2)c2c1CCC2 | -16.4
Cc1noc(C)c1CNC(=O)N1CCC(Cc2cnn(C)c2)C1 (stereo unspecified) | -3.98
CC(O)CN1CCC(CNCc2cccc(OC(F)(F)F)c2)CC1 (stereo unspecified) | 5.77
CCOc1ccccc1CNCC1CCN(CC(C)O)CC1 (stereo unspecified) | -1.15
O=C(NCc1cc[nH]n1)NCC(c1ccccc1)N1CCOCC1 (stereo unspecified) | 8.77
Cc1cnn(CC2CCCCN2Cc2cc(C)no2)c1 (stereo unspecified) | -8.3
CCc1nccn1C1CCCN(C(=O)CCOCC(F)(F)F)C1 (stereo unspecified) | -14
CCN(CC)CC(=O)N1CCN(c2nc(C)cc(OC)n2)CC1 | -0.607
Cc1cnn(CC2CCCN2Cc2cc(C)on2)c1 (stereo unspecified) | -4.61
Cc1cc(C)n(CC2CCCN2CCCS(C)(=O)=O)n1 (stereo unspecified) | -7.95

SMILES | cytotoxicity at 70.5 h [%]
CCn1ccnc1CN1CCCN(C(=O)c2scnc2C)CC1 | -11.5
COc1ccc(NC(=O)NC(C)Cc2ccco2)cn1 (stereo unspecified) | -11.4
CC(Cc1ccco1)NC(=O)Nc1ccc(N(C)C)nc1 (stereo unspecified) | -7.91
CN1CCN(c2cc(CNC(=O)c3ccc(Cl)o3)ccn2)CC1 | -3.02
NC(=O)Cn1cc(NC(=O)N2CCN(c3ccc(F)cc3)CC2)cn1 | 8.67
NC(=O)Cn1cc(NC(=O)N2CCCCCC2)cn1 | -11.1
N#Cc1ccsc1NC(=O)CN1CCOC(Cn2cccn2)C1 (stereo unspecified) | 11
Cc1cnn(CC2CN(CC(=O)Nc3cc(C)no3)CCO2)c1 (stereo unspecified) | -9.53
Cc1nc2cc(=O)[nH]n2c(C)c1CC(=O)NCc1ccoc1 | -1.36
CCc1ccsc1C(=O)N1CCCN(Cc2nccn2CC)CC1 | 5.97
Cc1n[nH]c(C2CN(C(=O)CCc3cscn3)CCO2)n1 (stereo unspecified) | -1.63
CC(NS(C)(=O)=O)C(=O)N1CCCN(Cc2cscn2)CC1 (stereo unspecified) | -1.86
Cc1nc(C)n(CC2CCCN2CCc2ccncc2)n1 (stereo unspecified) | 18.1
CC(OCC1CC1)C(=O)N1CCCN(Cc2cscn2)CC1 (stereo unspecified) | 1.88
CNc1cc(N2CCCC2CNCc2cnc(C)s2)ncn1 (stereo unspecified) | 2.89
CNc1cc(N2CCCC2CNCc2cscn2)ncn1 (stereo unspecified) | 1.05
CCc1nnsc1C(=O)N1CCCC(n2nc(C)nc2C)C1 (stereo unspecified) | -3.17
Cc1ncc(C(=O)N2CCCC(n3nc(C)nc3C)C2)c(C(C)C)n1 (stereo unspecified) | -4.64
